Patent publication US20130046171A1, “DEVICE AND METHOD FOR ACCESSING AND TREATING DUCTS OF MAMMARY GLANDS” (priority 2008, published 2013)

Legend:
[1] = Pharmacokinetic analysis of venous blood after intraductal administration; type: in vivo, women; conditions: intraductal carboplatin
Method: (§1) The study was performed in Cancer Hospital, Chinese Academy of Medical Sciences, Beijing, China where the standard of care includes a long preoperative hospital stay prior to mastectomy. Two drugs, pegylated liposomal doxorubicin (PLD) and carboplatin (C) were administered at 3 dose levels (PLD: 10, 20, 50 mg and carboplatin 60, 120, 300 mg) with the highest dose approximating the clinical intravenous dose. There were five subjects in each group with 15 subjects treated with each drug once. After informed consent, under local anesthesia subjects underwent cannulation of 5-8 ducts with intraductal instillation of the drug. Venous blood samples were obtained for pharmacokinetic analysis. The total dosage was divided by the number of cannulated ducts to yield a dose per duct. The breast was removed surgically as planned 2-5 days post treatment and the treated ducts were marked to enable identification on pathological evaluation. Intraductal administration was generally well-tolerated with mild, transient breast discomfort upon administration associated with the rate of infusion. Clinically significant laboratory adverse events were limited to decreases in hemoglobin following mastectomy, consistent with blood loss. […] In the carboplatin arm, three women at the 300 mg dose experienced mild nausea and vomiting.

[2] = test system: ductal carcinoma in situ, MNU-induced tumor formation; assay: MNU-induced tumor formation rat model, teat infusion of anticancer agents; type: in vivo, Sprague Dawley rats; conditions: for rats with no visible masses or mammary lesions at necropsy: necropsy Day 180±2; for incidence of tumor mass formation: within 6 months of MNU-injection
Text: The objective of this study was to evaluate the efficacy of five test articles (four marketed anticancer agents), administered directly into the mammary gland ducts via teat infusion, for therapy and prevention of ductal carcinoma in situ in an N-Nitroso-N-Methylurea (MNU)-induced tumor formation rat model. Based upon previous animal studies, candidates were selected for more rigorous evaluation at B Braun Biological Test Center (BTC) in Irvine, Calif. This facility was chosen to continue the preclinical work, started by Dr. Sukumar at JHU in order to support studies with a larger number of animals, in compliance with Good Laboratory Practices.
The agents were tested in 120 female Sprague Dawley rats (n=20 per treatment). On Day 1, each rat was injected intraperitoneally with MNU to induce tumor formation. […] Rats were weighed prior to MNU injection, prior to intra-ductal infusion, and once weekly throughout the study.
Rats were observed twice daily for mortality/morbidity and 1-3 times weekly for general appearance, stool appearance, signs of toxicity, and palpable mass formation until death or euthanasia. […] At necropsy, organs and tissues were grossly observed, and the entire bilateral mammary gland system, visible masses, and abnormal tissues were collected and retained in formalin.

[3] = Dose escalation study of intraductal cytotoxic drugs in women prior to mastectomy, safety; type: in vivo; conditions: 300 mg dose, five subjects per group
Method: as §1

[4] = test system: NMU-induced tumorigenesis in mammary glands; assay: Prophylaxis of NMU-induced mammary tumorigenesis by intraductal injection; type: in vivo, Sprague Dawley rats; conditions: rats given NMU 50 mg/kg i.v. after treatment, monitored 8 months
Method: The mammary glands (6 on each side) of six virgin 50 day old Sprague Dawley rats were injected with AdHS-tk on the left side and trypan blue on the right side or left untreated. One rat remained completely untreated with the virus or GCV and served as a positive control for NMU-induced tumorigenesis. On the day of surgery, rats were given an intramuscular injection of 5 μg estradiol valerate and were anesthetized with an isofluorane/O2 mixture. The nipples were cannulated with a 33 gauge needle. Twenty μl of AdHS-tk diluted in trypan blue carrier (1 mM MgCl2, 20 μg/ml polybrene in 10% glycerol, 0.4% trypan blue in saline) at a concentration of 5×10^7 particles/μl were injected into the duct. Carrier control mammary glands received 20 μl of trypan blue carrier alone. An animal was considered treated when at least three glands were successfully injected with trypan blue and another three glands were successfully injected with AdHS-tk. The remaining glands were left untreated. Twelve hrs later, the rats were injected with 125 mg/kg body weight GCV twice daily for three days. […] Five to seven days after GCV treatment, the rats were given an intravenous injection of NMU dissolved in 0.05% acetic acid (Ash Stevens, CO; 50 mg NMU/kg body weight) and were subsequently monitored for general health and the appearance of tumors at weekly intervals for 8 months.

mammary tumors = conditions: NMU administered at 55 days of age; cited from earlier work

## N.N.O=C([O-])C1(C(=O)[O-])CCC1.[Pt+2] [carboplatin]
[1]
  plasma ultrafiltrate AUC (area under the curve): consistent with the Calvert Formula using estimated GFR
[1]; systemic circulation
  peak time (tmax): ~30 min
[2]; 0.42 mg/teat
  rats with no visible masses or mammary lesions at necropsy: 5 of 20
[2]; 0.75 mg/teat
  incidence of palpable masses during the course of the study: lowest and least rapid
  rats with no visible masses or mammary lesions at necropsy: 7 of 19
  incidence of tumor mass formation: lowest incidence of tumor mass formation
[2]; 0.75 mg/teat intraductal on Day 15
  number of rats with masses at final observations prior to death or euthanasia: 11 of 20
[3]
  mild nausea and vomiting: three

## Nc1nc(O)c2ncn(COC(CO)CO)c2n1 [No injection; Ganciclovir, Ganciclovir]
[4]
  % of Glands with Tumor: 25.0%
  No. of Tumors: 5

## CN(N=O)C(N)=O [NMU, N-Nitroso-N-Methylurea]
Mammary tumors
  female rats that develop mammary tumors: 90-100%

## CC(=O)O[C@H]1C(=O)[C@@]2(C)[C@H]([C@H](OC(=O)c3ccccc3)[C@]3(O)C[C@H](OC(=O)[C@H](O)[C@@H](NC(=O)c4ccccc4)c4ccccc4)C(C)=C1C3(C)C)[C@]1(OC(C)=O)CO[C@@H]1C[C@@H]2O [Taxol®, paclitaxel]
[2]; 0.15 mg/teat
  incidence of palpable masses during the course of the study: highest and most rapid
  incidence of tumor mass formation: highest incidence of mass formation
[2]; 0.15 mg/teat intraductal on Day 15
  number of rats with masses at final observations prior to death or euthanasia: 20 of 20
[2]; 0.15 mg/teat, necropsied 4 months post-MNU injection, 20 rats
  rats with visible masses at necropsy: 20 rats
